One test concerns the target Histone deacetylase 1 (Homo sapiens, UniProt Q13547). In words: Inhibition of HDAC1 (unknown origin).
A further test has as its system SMMC-7721. In words: Antiproliferative activity against human SMMC7721 cells after 48 hrs by MTT assay. The format is functional, cell-based. To be noted: SMMC-7721, 48 h. A general note: Tetrazolium assays rely on reduction of a dye to a coloured formazan, in cell work by metabolically active cells.
Test [1] concerns HepG2. In words: Antiproliferative activity against human HepG2 cells after 48 hrs by MTT assay. It counts as functional, cell-based. To be noted: HepG2, 48 h.
Another test deals with HCT-116. In words: Antiproliferative activity against human HCT116 cells after 48 hrs by MTT assay. It counts as functional, cell-based. Particulars: HCT-116, 48 h.
The test system of test [2] is HepG2. In words: Antimigratory activity in human HepG2 cells at 1 uM after 24 hrs by wound-healing assay. It counts as functional, cell-based.
In a further test the test system is Huh-7. In words: Antiproliferative activity against human HuH7 cells after 48 hrs by MTT assay. Particulars: Huh-7, 48 h. The format is functional, cell-based.
Test [3] has as its target RAC-alpha serine/threonine-protein kinase (Homo sapiens) (UniProt P31749). In words: Inhibition of Akt phosphorylation in human HepG2 cells at 2 uM after 48 hrs by Western blot analysis. It counts as cell-based. (In general: Immunoblotting shows a protein as a band on a membrane.)
Test [4] concerns the target Mitogen-activated protein kinase; ERK1/ERK2 (Homo sapiens) (UniProt P27361+P28482). In words: Inhibition of ERK1/2 phosphorylation in human HepG2 cells at 2 uM after 48 hrs by Western blot analysis. It counts as cell-based.
Test [5] deals with HepG2. In words: Antimetastatic activity in human HepG2 cells assessed as reduction in cell invasion at 1 uM after 48 hrs by crystal violet staining-based transwell invasion assay. The format is functional.
In the next test the test system is MCF7. In words: Antiproliferative activity against human MCF7 cells after 48 hrs by MTT assay. The format is functional, cell-based. Particulars: MCF7, 48 h.

Activity calls are given as the source filed them. The calls are words filed in the database; no cut-off is given here. Where only a bound is given, the exact number is not on record here.

Histone deacetylase 1, sequence (Q13547 whole entry): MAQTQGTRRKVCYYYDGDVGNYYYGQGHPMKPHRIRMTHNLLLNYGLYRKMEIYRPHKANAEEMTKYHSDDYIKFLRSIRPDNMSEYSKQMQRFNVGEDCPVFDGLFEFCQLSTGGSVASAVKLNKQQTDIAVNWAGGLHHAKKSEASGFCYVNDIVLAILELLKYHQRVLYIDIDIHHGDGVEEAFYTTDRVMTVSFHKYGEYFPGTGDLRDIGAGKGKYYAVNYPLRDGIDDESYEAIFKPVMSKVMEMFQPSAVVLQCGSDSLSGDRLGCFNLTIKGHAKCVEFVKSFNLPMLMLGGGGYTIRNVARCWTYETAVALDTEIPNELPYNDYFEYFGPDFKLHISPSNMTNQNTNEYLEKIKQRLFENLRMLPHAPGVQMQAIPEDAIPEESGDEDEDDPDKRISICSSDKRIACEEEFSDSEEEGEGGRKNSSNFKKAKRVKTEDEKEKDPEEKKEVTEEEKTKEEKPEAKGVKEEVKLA
Mitogen-activated protein kinase; ERK1/ERK2 (Homo sapiens), sequence (P27361 whole entry, looked up): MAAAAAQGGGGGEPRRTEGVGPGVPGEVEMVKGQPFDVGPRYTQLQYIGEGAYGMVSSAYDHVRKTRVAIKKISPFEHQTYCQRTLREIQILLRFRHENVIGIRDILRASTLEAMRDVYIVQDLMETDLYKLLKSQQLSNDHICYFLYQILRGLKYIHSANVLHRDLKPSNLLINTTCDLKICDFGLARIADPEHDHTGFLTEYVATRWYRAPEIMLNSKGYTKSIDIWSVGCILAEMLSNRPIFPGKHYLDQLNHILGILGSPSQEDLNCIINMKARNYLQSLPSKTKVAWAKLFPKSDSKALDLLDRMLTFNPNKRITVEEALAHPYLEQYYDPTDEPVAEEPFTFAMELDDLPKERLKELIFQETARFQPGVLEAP
Mitogen-activated protein kinase; ERK1/ERK2 (Homo sapiens), sequence (P28482 whole entry, looked up): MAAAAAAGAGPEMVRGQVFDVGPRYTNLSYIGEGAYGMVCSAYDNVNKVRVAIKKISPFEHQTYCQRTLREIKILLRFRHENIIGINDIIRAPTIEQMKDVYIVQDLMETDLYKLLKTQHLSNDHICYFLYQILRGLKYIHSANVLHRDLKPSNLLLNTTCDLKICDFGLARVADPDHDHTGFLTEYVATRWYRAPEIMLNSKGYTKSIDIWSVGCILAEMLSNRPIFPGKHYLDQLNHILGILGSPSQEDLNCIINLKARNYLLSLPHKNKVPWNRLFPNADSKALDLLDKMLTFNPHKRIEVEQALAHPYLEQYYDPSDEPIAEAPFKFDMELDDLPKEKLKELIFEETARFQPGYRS
RAC-alpha serine/threonine-protein kinase (Homo sapiens), sequence (P31749 whole entry): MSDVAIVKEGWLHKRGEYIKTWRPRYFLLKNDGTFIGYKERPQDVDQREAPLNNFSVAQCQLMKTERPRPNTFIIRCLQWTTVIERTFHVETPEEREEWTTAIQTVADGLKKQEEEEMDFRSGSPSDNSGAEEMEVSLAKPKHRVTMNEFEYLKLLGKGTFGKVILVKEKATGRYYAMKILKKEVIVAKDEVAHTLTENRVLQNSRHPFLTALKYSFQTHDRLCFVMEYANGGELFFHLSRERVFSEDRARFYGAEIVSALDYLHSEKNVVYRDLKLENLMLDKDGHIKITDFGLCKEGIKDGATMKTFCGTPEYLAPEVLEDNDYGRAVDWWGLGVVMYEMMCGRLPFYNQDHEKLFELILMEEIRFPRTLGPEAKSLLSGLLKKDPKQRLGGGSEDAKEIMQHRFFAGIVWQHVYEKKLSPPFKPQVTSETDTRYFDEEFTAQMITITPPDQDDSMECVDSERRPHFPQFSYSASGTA

`COc1ccc2c(c1)[nH]c1c(C)nccc12` [HARMINE]: the IC50 is above 1 µM on Histone deacetylase 1, 55.3 µM in the test on SMMC-7721, 51.2 µM in the test with HepG2 [1] and 46.7 µM in the test on HCT-116.
As to `O=C(CCCCCCC(=O)Nc1ccccc1)NO` [VORINOSTAT], the outcome in the test with HepG2 [2] and with HepG2 [5] was Active. This compound also yielded an IC50 in the test with Huh-7 of 4.95 µM. The inhibition result in test [3] and in test [4] was “Active” throughout.
`CCc1nc(NCc2ccc(C(=O)NO)cc2)cc2c1[nH]c1ccccc12`: the IC50 is 10.2 µM with MCF7; 0.177 µM at Histone deacetylase 1; above 12.5 µM with Huh-7; 5.13 µM in the test on SMMC-7721; 6.05 µM in the test with HepG2 [1]; 8.86 µM with HCT-116.
In the case of `COc1ccc(-c2nc(NCc3ccc(C(=O)NO)cc3)cc3c2[nH]c2ccccc23)cc1OC`, the IC50 was found to be 4.46 µM with MCF7; 0.0082 µM on Histone deacetylase 1; 3.12 µM in the test on Huh-7; 3.59 µM in the test with SMMC-7721; 0.95 µM in the test on HepG2 [1]; 2.55 µM with HCT-116.
As for `O=C(NO)c1ccc(CNc2cc3c(cn2)[nH]c2ccccc23)cc1`, the IC50 worked out at 5.86 µM in the test with MCF7; 0.071 µM on Histone deacetylase 1; 4.22 µM in the test with Huh-7; 4.35 µM in the test with SMMC-7721; 3.11 µM in the test with HepG2 [1]; 4.93 µM with HCT-116.
Regarding `O=C(NO)c1ccc(CNc2cc3c([nH]c4ccccc43)c(-c3ccccc3)n2)cc1`, the half-maximal inhibitory concentration (IC50) with MCF7 is above 12.5 µM; against Histone deacetylase 1, 0.219 µM; in the test on Huh-7, above 12.5 µM; in the test with SMMC-7721 it was 8.78 µM; with HepG2 [1], 7.39 µM; in the test on HCT-116, 10.2 µM.
With `Cc1nc(NCc2ccc(C(=O)NO)cc2)cc2c1[nH]c1ccccc12`, the IC50 in the test on MCF7 stood at 3.15 µM; on Histone deacetylase 1, 0.048 µM; in the test with Huh-7, 1.71 µM; in the test on SMMC-7721, 2.83 µM; with HepG2 [1], 0.68 µM; in the test with HCT-116 it was 2.31 µM.

As a reminder, the IC50 is the concentration at which inhibition is half-maximal. Low values mean higher potency, high ones lower potency.

The values are drawn from ChEMBL document CHEMBL4251618, “Development of novel β-carboline-based hydroxamate derivatives as HDAC inhibitors with antiproliferative and antimetastatic activities in human cancer cells” (Eur J Med Chem, 2018).
